Test results reported in patent US20090110739A1, “Targeted cancer chemotherapy using synthetic nanoparticles” (University of North Texas Health Science Center at Forth …, priority 2007, published 2009).

Columns and labels:
Type in all cases: cell-based
cancer cells = test: Uptake of paclitaxel encapsulated in sHDL nanoparticles by cancer cells; conditions: encapsulated in the delivery particles; HDL receptors; FIG. 7
OVCAR 3 = test: MTT cytotoxicity, OVCAR 3 cancer cell line; conditions: Homo sapiens; OVCAR 3 cells
OV1063 = test: MTT cytotoxicity, OV1063 cancer cell line; conditions: Homo sapiens, OV-1063; OV1063 cells
DU145 = test: MTT cytotoxicity, DU145 cancer cell line; conditions: Homo sapiens, DU-145; DU145 cells

## CC(=O)O[C@H]1C(=O)[C@@]2(C)[C@H]([C@H](OC(=O)c3ccccc3)[C@]3(O)C[C@H](OC(=O)[C@H](O)[C@@H](NC(=O)c4ccccc4)c4ccccc4)C(C)=C1C3(C)C)[C@]1(OC(C)=O)CO[C@@H]1C[C@@H]2O [Ptx, paclitaxel]
Cancer cells
  uptake by cancer cells: taken up by cancer cells via this receptor mediated mechanism
OVCAR 3
  IC50: 70.3 µM
OV1063
  IC50: 14.2 µM
DU145
  IC50: 14.2 µM
